# Reference: publication PMC9656319, “Pharmacokinetics and Tissue Distribution of Coumarins from Tagetes lucida in an LPS-Induced Neuroinflammation Model” (Plants, 2022)
# Assays:
# [1] = Pharmacokinetic study in plasma after oral hexanic extract of Tagetes lucida, healthy and LPS-damaged mice; type: in vivo, ICR mice; settings: for amount of drug available in the plasma, LPS mice compared to healthy subjects / Cmax / AUC(0-inf) / MRT / Tmax / half-life / AUC(0-t) / Cl/F: 10 mg/kg oral hexanic extract; for amount of drug available in the plasma, LPS mice compared to healthy subjects: concentration-time profiles (Figure 3); for Cmax / AUC(0-inf) / MRT / Tmax / half-life / AUC(0-t): ICR, mouse, po, 10 mg/kg; for Cmax: non-compartmental; for Cmax / AUC(0-inf) / MRT / Tmax / half-life / AUC(0-t) / Cl/F: mean ± SEM (n = 5); for AUC(0-t): to 6 h
# Method: The optimized HPLC-validated method for the quantification of coumarins present in the hexane extract of T. lucida was used to evaluate the concentration profiles over time in the plasma, brain, kidney, and spleen biological matrices after an oral administration of 10 mg/kg of the extract.
# Blood samples were obtained from the retro-orbital sinus of mice and collected in heparinized tubes. Plasma was separated by centrifugation at 3500 rpm for 5 min and stored in new Eppendorf tubes at −70 °C, until further processing.
# One hundred microliters of plasma and organs samples, spiked with calibration and QC concentration or samples from the pharmacokinetic study, were mixed with 300 µL of acetonitrile containing the IS at 10 µg/mL for protein precipitation, and vortexed for 3 min. Then, 200 µL of dichloromethane were added, for liquid–liquid extraction of the bioactive compounds, and vortexed for 5 min. The mixture was centrifuged at 14,000 rpm for 10 min, and the extracted organic layers were placed in new tubes, until completely dry at room temperature. For quantitative analysis, samples were resuspended in 100 µL of methanol, transferred to sampling vials, and injected into the chromatographic system, described below.
# A pharmacokinetic study was carried out in sixty mice, divided in six subgroups, according to sample collection times. An acute inflammation process by the intraperitoneal (i.p.) administration of LPS at 2 mg/kg was induced in half of the mice per group, while the other half received an i.p. injection of saline solution. Ten min after the damage was induced, the mice were administered with an oral dose of 10 mg/kg of the bioactive fraction dissolved in a 1% Tween-20 aqueous solution. Blood and tissue samples were obtained and processed at 0, 0.25, 0.75, 1.5, 2, 4, and 6 h post-dosing, as indicated in the “Samples collection” and “Plasma and tissue samples processing” sections.
# Pharmacokinetic parameters of PE, SC, DF, HR, and PU in plasma were calculated by PKSolver software.
# [2] = Stability of the analytes in spiked plasma, brain, kidney and spleen matrices (autosampler, long-term, freeze-thaw); type: physicochemical, mice; settings: for Stability Autosampler RE (%): processed samples in autosampler vials 24 h room temperature; for Stability Freeze-Thaw RE (%): three cycles (−4 °C to 25 °C); for Stability Long-Term RE (%): −70 °C for 30 days
# Method: The stability of the compounds obtained from each enriched matrices at the QC concentrations was evaluated under different conditions that covered the processing, handling, and storage phases that could be developed throughout the study.
# Individual stock solutions of PE, SC, DF, HR, PU, and rutin (IS) were prepared separately in methanol (1 mg/mL) and stored at −4 °C until use. From the stocks, a working solution in methanol was prepared at a concentration of 200 µg/mL of each coumarin. Blank plasma or organs supernatant samples (80 µL) were spiked with 20 µL of serial dilutions of working solution to obtain calibration curves ranging between 0.156, 0.312, 0.625, 1.25, 2.5, 5, 10, 20, and 40 µg/mL of each coumarin. Quality control (QC) samples were prepared at three levels of 0.3 (low), 3 (medium), and 30 (high) µg/mL for each coumarin.
# The stability of the analytes in plasma, brain, kidneys, and spleen was evaluated by the analyzed concentrations of QC subjected to three different conditions. Short-term stability was determined by analysis of samples processed in the autosampler vials at 24 h at room temperature. Long-term stability was tested on samples stored at −70 °C for 30 days. Freeze-thaw stability was determined after three cycles (−4 °C to 25 °C) on three consecutive days.
# [3] = plasma, LPS-damaged ICR mice (LPS 2 mg/kg i.p.)
structure (smiles),measurement,setting,value
"COc1cc2ccc(=O)oc2c(OC)c1OC [DF, dimethylfraxetin]","amount of drug available in the plasma, LPS mice compared to healthy subjects",[1],three-fold higher
same,Cmax,[1]; [3],1820 ± 270 ng/mL
same,AUC(0-inf),"[1]; plasma, LPS-damaged ICR mice",3610 ± 400 ng·h/mL
same,MRT,"[1]; plasma, LPS-damaged ICR mice",2.72 ± 0.3 h
same,Tmax,"[1]; plasma, LPS-damaged ICR mice",0.6 ± 0.24 h
same,half-life,"[1]; plasma, LPS-damaged ICR mice",1.5 ± 0.37 h
same,AUC(0-t),"[1]; plasma, LPS-damaged ICR mice",3250 ± 310 ng·h/mL
same,AUC(0-inf),"[1]; plasma, healthy ICR mice",1710 ± 190 ng·h/mL
same,MRT,"[1]; plasma, healthy ICR mice",2.35 ± 0.33 h
same,Tmax,"[1]; plasma, healthy ICR mice",1.2 ± 0.31 h
same,half-life,"[1]; plasma, healthy ICR mice",0.98 ± 0.27 h
same,Cmax,"[1]; plasma, healthy ICR mice",580 ± 20 ng/mL
same,AUC(0-t),"[1]; plasma, healthy ICR mice",1640 ± 170 ng·h/mL
same,pharmacokinetic characteristics in words,"[1]; LPS-treated mice, plasma, Figure 3b, 3c",fast distribution and subsequent elimination
same,Cl/F,"[1]; plasma, LPS-damaged ICR mice",28.81 ± 2.51 (mg/kg)/(μg/mL)/h
same,increase in the Cmax in the damaged animals versus healthy,"[1]; plasma, LPS-damaged vs healthy mice",up to three times more
same,Cl/F,"[1]; plasma, healthy ICR mice",62.45 ± 9.38 (mg/kg)/(μg/mL)/h
same,Stability Autosampler RE (%),"[2]; brain, nominal 0.3 µg/mL",-4.07%
same,Stability Freeze-Thaw RE (%),"[2]; brain, nominal 0.3 µg/mL",0.03%
same,Stability Long-Term RE (%),"[2]; brain, nominal 0.3 µg/mL",-0.62%
same,Stability Autosampler RE (%),"[2]; brain, nominal 3.0 µg/mL",3.73%
same,Stability Freeze-Thaw RE (%),"[2]; brain, nominal 3.0 µg/mL",-6.72%
same,Stability Long-Term RE (%),"[2]; brain, nominal 3.0 µg/mL",0.46%
same,Stability Autosampler RE (%),"[2]; brain, nominal 30.0 µg/mL",3.21%
same,Stability Freeze-Thaw RE (%),"[2]; brain, nominal 30.0 µg/mL",-0.35%
same,Stability Long-Term RE (%),"[2]; brain, nominal 30.0 µg/mL",-4.35%
same,Stability Autosampler RE (%),"[2]; kidney, nominal 0.3 µg/mL",5.83%
same,Stability Freeze-Thaw RE (%),"[2]; kidney, nominal 0.3 µg/mL",-0.65%
same,Stability Long-Term RE (%),"[2]; kidney, nominal 0.3 µg/mL",5.19%
same,Stability Autosampler RE (%),"[2]; kidney, nominal 3.0 µg/mL",4.79%
same,Stability Freeze-Thaw RE (%),"[2]; kidney, nominal 3.0 µg/mL",0.82%
same,Stability Long-Term RE (%),"[2]; kidney, nominal 3.0 µg/mL",8.12%
same,Stability Autosampler RE (%),"[2]; kidney, nominal 30.0 µg/mL",0.66%
same,Stability Freeze-Thaw RE (%),"[2]; kidney, nominal 30.0 µg/mL",0.47%
same,Stability Long-Term RE (%),"[2]; kidney, nominal 30.0 µg/mL",5.67%
same,Stability Autosampler RE (%),"[2]; plasma, nominal 0.3 µg/mL",2.59%
same,Stability Freeze-Thaw RE (%),"[2]; plasma, nominal 0.3 µg/mL",-12.33%
same,Stability Long-Term RE (%),"[2]; plasma, nominal 0.3 µg/mL",-6.74%
same,Stability Autosampler RE (%),"[2]; plasma, nominal 3.0 µg/mL",-1.38%
same,Stability Freeze-Thaw RE (%),"[2]; plasma, nominal 3.0 µg/mL",2.47%
same,Stability Long-Term RE (%),"[2]; plasma, nominal 3.0 µg/mL",-3.13%
same,Stability Autosampler RE (%),"[2]; plasma, nominal 30.0 µg/mL",4.21%
same,Stability Freeze-Thaw RE (%),"[2]; plasma, nominal 30.0 µg/mL",0.49%
same,Stability Long-Term RE (%),"[2]; plasma, nominal 30.0 µg/mL",-3.40%
same,Stability Autosampler RE (%),"[2]; spleen, nominal 0.3 µg/mL",6.88%
same,Stability Freeze-Thaw RE (%),"[2]; spleen, nominal 0.3 µg/mL",-0.67%
same,Stability Long-Term RE (%),"[2]; spleen, nominal 0.3 µg/mL",5.43%
same,Stability Autosampler RE (%),"[2]; spleen, nominal 3.0 µg/mL",-1.66%
same,Stability Freeze-Thaw RE (%),"[2]; spleen, nominal 3.0 µg/mL",0.49%
same,Stability Long-Term RE (%),"[2]; spleen, nominal 3.0 µg/mL",7.09%
same,Stability Autosampler RE (%),"[2]; spleen, nominal 30.0 µg/mL",1.50%
same,Stability Freeze-Thaw RE (%),"[2]; spleen, nominal 30.0 µg/mL",-1.06%
same,Stability Long-Term RE (%),"[2]; spleen, nominal 30.0 µg/mL",7.60%
"COc1ccc2ccc(=O)oc2c1 [HR, herniarin]","amount of drug available in the plasma, LPS mice compared to healthy subjects",[1],three-fold higher
same,Cmax,[1]; [3],1480 ± 190 ng/mL
same,AUC(0-inf),"[1]; plasma, LPS-damaged ICR mice",3210 ± 380 ng·h/mL
same,MRT,"[1]; plasma, LPS-damaged ICR mice",2.77 ± 0.25 h
same,Tmax,"[1]; plasma, LPS-damaged ICR mice",0.25 h
same,half-life,"[1]; plasma, LPS-damaged ICR mice",1.49 ± 0.35 h
same,AUC(0-t),"[1]; plasma, LPS-damaged ICR mice",2950 ± 280 ng·h/mL
same,AUC(0-inf),"[1]; plasma, healthy ICR mice",1030 ± 140 ng·h/mL
same,MRT,"[1]; plasma, healthy ICR mice",2.77 ± 0.35 h
same,Tmax,"[1]; plasma, healthy ICR mice",0.95 ± 0.35 h
same,half-life,"[1]; plasma, healthy ICR mice",1.66 ± 0.46 h
same,Cmax,"[1]; plasma, healthy ICR mice",620 ± 340 ng/mL
same,AUC(0-t),"[1]; plasma, healthy ICR mice",920 ± 120 ng·h/mL
same,Cl/F,"[1]; plasma, LPS-damaged ICR mice",32.50 ± 2.91 (mg/kg)/(μg/mL)/h
same,Cl/F,"[1]; plasma, healthy ICR mice",103.7 ± 13.0 (mg/kg)/(μg/mL)/h
same,Stability Autosampler RE (%),"[2]; brain, nominal 0.3 µg/mL",-3.47%
same,Stability Freeze-Thaw RE (%),"[2]; brain, nominal 0.3 µg/mL",-0.69%
same,Stability Long-Term RE (%),"[2]; brain, nominal 0.3 µg/mL",-0.21%
same,Stability Autosampler RE (%),"[2]; brain, nominal 3.0 µg/mL",2.31%
same,Stability Freeze-Thaw RE (%),"[2]; brain, nominal 3.0 µg/mL",-5.14%
same,Stability Long-Term RE (%),"[2]; brain, nominal 3.0 µg/mL",-0.98%
same,Stability Autosampler RE (%),"[2]; brain, nominal 30.0 µg/mL",3.86%
same,Stability Freeze-Thaw RE (%),"[2]; brain, nominal 30.0 µg/mL",-1.02%
same,Stability Long-Term RE (%),"[2]; brain, nominal 30.0 µg/mL",-4.72%
same,Stability Autosampler RE (%),"[2]; kidney, nominal 0.3 µg/mL",8.17%
same,Stability Freeze-Thaw RE (%),"[2]; kidney, nominal 0.3 µg/mL",2.03%
same,Stability Long-Term RE (%),"[2]; kidney, nominal 0.3 µg/mL",5.12%
same,Stability Autosampler RE (%),"[2]; kidney, nominal 3.0 µg/mL",2.81%
same,Stability Freeze-Thaw RE (%),"[2]; kidney, nominal 3.0 µg/mL",-0.62%
same,Stability Long-Term RE (%),"[2]; kidney, nominal 3.0 µg/mL",3.06%
same,Stability Autosampler RE (%),"[2]; kidney, nominal 30.0 µg/mL",1.35%
same,Stability Freeze-Thaw RE (%),"[2]; kidney, nominal 30.0 µg/mL",2.25%
same,Stability Long-Term RE (%),"[2]; kidney, nominal 30.0 µg/mL",3.32%
same,Stability Autosampler RE (%),"[2]; plasma, nominal 0.3 µg/mL",8.34%
same,Stability Freeze-Thaw RE (%),"[2]; plasma, nominal 0.3 µg/mL",0.67%
same,Stability Long-Term RE (%),"[2]; plasma, nominal 0.3 µg/mL",9.39%
same,Stability Autosampler RE (%),"[2]; plasma, nominal 3.0 µg/mL",12.83%
same,Stability Freeze-Thaw RE (%),"[2]; plasma, nominal 3.0 µg/mL",-7.90%
same,Stability Long-Term RE (%),"[2]; plasma, nominal 3.0 µg/mL",3.99%
same,Stability Autosampler RE (%),"[2]; plasma, nominal 30.0 µg/mL",14.32%
same,Stability Freeze-Thaw RE (%),"[2]; plasma, nominal 30.0 µg/mL",-5.47%
same,Stability Long-Term RE (%),"[2]; plasma, nominal 30.0 µg/mL",3.55%
same,Stability Autosampler RE (%),"[2]; spleen, nominal 0.3 µg/mL",5.46%
same,Stability Freeze-Thaw RE (%),"[2]; spleen, nominal 0.3 µg/mL",-0.63%
same,Stability Long-Term RE (%),"[2]; spleen, nominal 0.3 µg/mL",0.22%
same,Stability Autosampler RE (%),"[2]; spleen, nominal 3.0 µg/mL",-0.16%
same,Stability Freeze-Thaw RE (%),"[2]; spleen, nominal 3.0 µg/mL",4.87%
same,Stability Long-Term RE (%),"[2]; spleen, nominal 3.0 µg/mL",7.44%
same,Stability Autosampler RE (%),"[2]; spleen, nominal 30.0 µg/mL",1.18%
same,Stability Freeze-Thaw RE (%),"[2]; spleen, nominal 30.0 µg/mL",0.49%
same,Stability Long-Term RE (%),"[2]; spleen, nominal 30.0 µg/mL",2.92%
